Test results published in ChEMBL document CHEMBL3352749, “An iridoid glucoside and the related aglycones from Cornus florida” (J Nat Prod, 2014).
Calls of active or inactive are those of the source.

Key:
BG02 = assay: Growth inhibition of human BG02 cells up to 100 uM; assay type: functional, cell-based
MCF7 = assay: Growth inhibition of human MCF7 cells up to 100 uM; assay type: functional, cell-based
MDA-MB-231 = assay: Growth inhibition of human MDA-MB-231 cells up to 100 uM; assay type: functional, cell-based
[1] = target: T1, Peroxisome proliferator-activated receptor gamma (Homo sapiens) (UniProt P37231); assay: Agonist activity at PPARgamma (unknown origin)
T1 sequence (whole entry): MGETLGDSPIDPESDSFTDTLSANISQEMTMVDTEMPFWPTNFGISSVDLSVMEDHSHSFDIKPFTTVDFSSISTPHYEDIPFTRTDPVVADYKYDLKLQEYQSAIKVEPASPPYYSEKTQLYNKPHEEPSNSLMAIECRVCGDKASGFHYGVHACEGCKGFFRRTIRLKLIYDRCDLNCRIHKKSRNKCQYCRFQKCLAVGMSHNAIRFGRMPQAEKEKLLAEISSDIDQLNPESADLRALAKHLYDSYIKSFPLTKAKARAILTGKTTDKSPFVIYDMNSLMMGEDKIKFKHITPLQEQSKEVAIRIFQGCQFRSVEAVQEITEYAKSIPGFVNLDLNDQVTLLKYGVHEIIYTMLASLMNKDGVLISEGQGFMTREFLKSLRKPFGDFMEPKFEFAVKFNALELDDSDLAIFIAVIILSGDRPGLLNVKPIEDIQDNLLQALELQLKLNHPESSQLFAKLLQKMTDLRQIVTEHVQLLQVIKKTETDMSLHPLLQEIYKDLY

Measured: Activity

C[C@H]1C[C@@H]2OC(=O)C[C@@H]2[C@@H]1CO
inactive: BG02 | MCF7 | MDA-MB-231 | [1]

COC(=O)[C@H]1C(=O)O[C@H]2C[C@H](C)[C@@H](CO[C@@H]3O[C@H](CO)[C@@H](O)[C@H](O)[C@H]3O)[C@@H]12
inactive: BG02 | MCF7 | MDA-MB-231

COC(=O)[C@@H]1C(=O)OC[C@H]2[C@@H]1[C@H](O)C[C@@H]2C
inactive: BG02 | MCF7 | MDA-MB-231 | [1]

C[C@H]1C[C@@H]2OC(=O)[C@@H]3C(=O)OC[C@H]1[C@@H]32
inactive: BG02 | MCF7 | MDA-MB-231 | [1]

C[C@H]1C[C@@H](O)[C@@H]2CC(=O)OC[C@@H]21
inactive: BG02 | MCF7 | [1]
